This passage reports EC50 results from US8822430B2 (Gilead Sciences, Inc., priority 2009, dated 2014).

The test relates to HCV 1b RLuc cells (dicistronic genotype 1b Con1 replicon). Put plainly: Renilla luciferase (RLuc)-based HCV replicon reporter assay. The format is cell-based, HCV genotype 1b. The following applies: Hepatitis C virus, 72 h, HCV 1b RLuc replicon, 72 hours; read-out: Activity (antiviral potency [EC50]). The gist of the method:
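HCV 1b RLuc cells carrying a dicistronic genotype 1b Con1 replicon were treated with serially diluted compounds from 10 mM DMSO stocks. After 72 h, cells were lysed and Renilla luciferase activity measured. EC50 was obtained by non-linear regression.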
On to `COC(=O)N[C@H](C(=O)N1CCC[C@H]1c1ncc(-c2ccc(-c3ccc(-c4ccc(-c5cnc([C@@H]6CCCN6C(=O)[C@@H](NC(=O)OC)C(C)C)[nH]5)cc4)cc3)cc2)[nH]1)C(C)C`, for which the EC50 was 0.024 nM.
On to `COC(=O)N[C@H](C(=O)N1CCC[C@H]1c1ncc(-c2ccc(C#Cc3ccc4nc([C@@H]5CCCN5C(=O)[C@@H](NC(=O)OC)C(C)C)[nH]c4c3)cc2)[nH]1)C(C)C`, for which the EC50 was 0.0111 nM.
Regarding `COC(=O)N[C@H](C(=O)N1CCC[C@H]1c1ncc(-c2ccc(-c3ccc(-c4cnc([C@@H]5CN(c6ccccc6)CN5C(=O)[C@@H](NC(=O)OC)C(C)C)[nH]4)cc3)cc2)[nH]1)C(C)C`, the EC50 was 0.0074 nM.
As for `COC(=O)N[C@H](C(=O)N1CCC[C@H]1c1ncc(-c2ccc(-c3ccc(-c4cnc([C@@H]5CN(C(=O)c6ccccc6)CN5C(=O)[C@@H](NC(=O)OC)C(C)C)[nH]4)cc3)cc2)[nH]1)C(C)C`, the EC50 was found to be 0.0136 nM.
As to `COC(=O)N[C@H](C(=O)N1CCC[C@H]1c1ncc(-c2ccc(-c3ccc(-c4cnc([C@@H]5CN(CC(F)(F)F)CN5C(=O)[C@@H](NC(=O)OC)C(C)C)[nH]4)cc3)cc2)[nH]1)C(C)C`, the EC50 was 0.0074 nM.
For `COC(=O)N[C@H](C(=O)N1CCC[C@H]1c1ncc(-c2ccc(-c3ccc(-c4cnc([C@@H]5CCCN5C(=O)[C@@H](NC(=O)OC)C(C)C)[nH]4)s3)cc2)[nH]1)C(C)C` the value was 0.0081 nM; for `COC(=O)NC(C(=O)N1CCS[C@H]1c1nc(-c2cc3c(OC)c4sc(-c5c[nH]c([C@@H]6SCCN6C(=O)C(NC(=O)OC)c6ccccc6)n5)cc4c(OC)c3s2)c[nH]1)c1ccccc1` (stereo partly shown), 4.37 nM; for `COC(=O)N[C@H](C(=O)N1CCC[C@H]1c1ncc(-c2ccc3cc(-c4ccc(-c5cnc([C@@H]6C[C@@H](c7ccccc7)CN6C(=O)[C@@H](NC(=O)OC)C(C)C)[nH]5)cc4)ccc3c2)[nH]1)C(C)C`, 0.0724 nM.
As for `COC(=O)N[C@H](C(=O)N1CCC[C@H]1c1ncc(-c2ccc3cc(-c4ccc(-c5cnc([C@@H]6C[C@@H](Cc7ccccc7)CN6C(=O)[C@@H](NC(=O)OC)C(C)C)[nH]5)cc4)ccc3c2)[nH]1)C(C)C`, the EC50 was determined as 0.014 nM.
For `COC(=O)N[C@@H](C)C(=O)N1[C@@H](c2ccccc2)CC[C@H]1c1ncc(-c2ccc(-c3ccc4cc(-c5cnc([C@@H]6CCCN6C(=O)[C@@H](NC(=O)OC)C(C)C)[nH]5)ccc4c3)cc2)[nH]1` the value was 0.788 nM; for `COC(=O)NC(C(=O)N1CCC[C@H]1c1ncc(-c2ccc(-c3ccc4cc(-c5cnc([C@@H]6CCCN6C(=O)[C@@H](NC(=O)OC)C(C)C)[nH]5)ccc4c3)cc2)[nH]1)c1ccsc1` (stereo partly shown), 0.0197 nM; for `COC(=O)N[C@@H](Cc1ccccc1)C(=O)N1CCC[C@H]1c1ncc(-c2ccc(-c3ccc4cc(-c5cnc([C@@H]6CCCN6C(=O)[C@@H](NC(=O)OC)C(C)C)[nH]5)ccc4c3)cc2)[nH]1`, 0.0181 nM.
`COC(=O)N[C@H](C(=O)N1CCC[C@H]1c1ncc(-c2ccc3cc(-c4ccc(-c5cnc([C@@H]6CCCN6C(=O)[C@@H](Cc6ccccc6)NC(=O)OC)[nH]5)cc4)ccc3c2)[nH]1)C(C)C`: the EC50 came out at 0.858 nM.
In the case of `COC(=O)N[C@H](C(=O)N1CCC[C@H]1c1ncc(-c2ccc3cc(-c4ccc(-c5cnc([C@@H]6C[C@H](c7ccccc7)CN6C(=O)[C@@H](NC(=O)OC)C(C)C)[nH]5)cc4)ccc3c2)[nH]1)C(C)C`, the EC50 came out at 0.0189 nM.
For `COC(=O)NC(C(=O)N1CCC[C@H]1c1ncc(-c2cc3sc(-c4ccc5nc([C@@H]6CCCN6C(=O)[C@@H](NC(=O)OC)C(C)C)[nH]c5c4)cc3s2)[nH]1)C(C)C` (stereo partly shown) the value was 0.0229 nM; for `COC(=O)NC(C(=O)N1CCC[C@H]1c1ncc(-c2ccc3cc(-c4ccc(-c5cnc([C@@H]6C[C@H](OC(F)F)CN6C(=O)[C@@H](NC(=O)OC)C(C)C)[nH]5)cc4)ccc3c2)[nH]1)c1ccccc1` (stereo partly shown), 0.0171 nM; for `C=C1C[C@@H](c2ncc(-c3ccc(-c4ccc5cc(-c6cnc([C@@H]7CCCN7C(=O)[C@@H](NC(=O)OC)C(C)C)[nH]6)ccc5c4)cc3)[nH]2)N(C(=O)[C@@H](NC(=O)OC)C(C)C)C1`, 0.0113 nM.
In the case of `COC(=O)N[C@H](C(=O)N1CCC[C@H]1c1ncc(-c2ccc3cc(-c4ccc(-c5cnc([C@@H]6CCCN6C(=O)[C@@H](Cc6cn(C)c7ccccc67)NC(=O)OC)[nH]5)cc4)ccc3c2)[nH]1)C(C)C`, the EC50 was determined as 6.18 nM.
To `COC(=O)N[C@H](C(=O)N1CCC[C@H]1c1ncc(-c2ccc3cc(-c4ccc(-c5cnc([C@@H]6CCCN6C(=O)[C@H](NC(=O)OC)c6ccc(F)cc6)[nH]5)cc4)ccc3c2)[nH]1)C(C)C` belongs 0.0142 nM; to `COC(=O)N[C@H](C(=O)N1CCC[C@H]1c1ncc(-c2ccc3cc(-c4ccc(-c5cnc([C@@H]6CCCN6C(=O)[C@H](O)c6ccccc6)[nH]5)cc4)ccc3c2)[nH]1)C(C)C`, 0.0097 nM.
For `COC(=O)N[C@H](C(=O)N1CCC[C@H]1c1ncc(-c2ccc3cc(-c4ccc(-c5cnc([C@@H]6CCCN6C(=O)[C@H](OC)c6ccccc6)[nH]5)cc4)ccc3c2)[nH]1)C(C)C`, the EC50 came to 0.0163 nM.
Turning to `COC(=O)N[C@H](C(=O)N1CCC[C@H]1c1ncc(-c2ccc3c(c2)COc2c-3ccc3cc(-c4cnc([C@@H]5CCCN5C(=O)[C@@H](NC(=O)OC)C5CCOCC5)[nH]4)ccc23)[nH]1)C1CCOCC1`, the EC50 turned out to be 0.0417 nM.
On to `COC(=O)N[C@H](C(=O)N1CCC[C@H]1c1ncc(-c2ccc(-c3ccc4cc(-c5cnc([C@@H]6CCCN6C(=O)[C@@H](NC(=O)OC)C(C)C)[nH]5)ccc4c3)cc2)[nH]1)c1ccsc1`, for which the concentration for a half-maximal effect (EC50) is 0.0906 nM.
As to `COC(=O)N[C@H](C(=O)N1CCC[C@H]1c1ncc(-c2ccc3cc(-c4ccc(-c5cnc([C@@H]6CCCN6C(=O)[C@H](NC(=O)OC)c6ccsc6)[nH]5)cc4)ccc3c2)[nH]1)C(C)C`, the EC50 was 0.0157 nM.
For the compound `COC(=O)NC(C(=O)N1CCC[C@H]1c1ncc(-c2cc3sc(C#Cc4cnc([C@@H]5CCCN5C(=O)[C@@H](NC(=O)OC)C(C)C)[nH]4)cc3s2)[nH]1)C(C)C` (stereo partly shown), the EC50 was found to be 0.0503 nM.
With `COC(=O)N[C@H](C(=O)N1CCC[C@H]1c1ncc(-c2ccc3cc(-c4ccc5[nH]c([C@@H]6CCN6C(=O)[C@@H](NC(=O)OC)C(C)C)nc5c4)ccc3c2)[nH]1)C(C)C`, the EC50 turned out to be 0.026 nM.
For `COC(=O)N[C@H](C(=O)N1CCC[C@H]1c1ncc(-c2ccc(-c3ccc(-c4ccc5nc([C@@H]6CCN6C(=O)[C@@H](NC(=O)OC)C(C)C)[nH]c5c4)cc3)cc2)[nH]1)C(C)C`, the EC50 came to 0.0282 nM.
Turning to `COC(=O)N[C@H](C(=O)N1CCC[C@H]1c1ncc(-c2ccc3cc(-c4ccc5nc([C@@H]6CCN6C(=O)[C@H](NC(=O)OC)c6ccccc6)[nH]c5c4)ccc3c2)[nH]1)C(C)C`, the EC50 was 0.07 nM.
Regarding `COC(=O)N[C@H](C(=O)N1CC[C@H]1c1nc2ccc(-c3ccc(-c4ccc(-c5cnc([C@@H]6CCCN6C(=O)[C@H](NC(=O)OC)c6ccccc6)[nH]5)cc4)cc3)cc2[nH]1)C(C)C`, the EC50 was determined as 0.0195 nM.
To `COC(=O)N[C@H](C(=O)N1CCC[C@H]1c1ncc(-c2ccc3cc(-c4ccc(-c5cnc([C@@H]6CC(=O)CN6C(=O)[C@@H](NC(=O)OC)C(C)C)[nH]5)cc4)ccc3c2)[nH]1)C(C)C` belongs 0.0103 nM; to `COC(=O)N[C@H](C(=O)N1CCC[C@H]1c1ncc(-c2ccc(-c3ccc4cc(-c5cnc([C@@H]6CCCN6C(=O)[C@@H](NC(=O)OC)C(C)C)[nH]5)ccc4c3)cc2)[nH]1)c1ccc(F)cc1`, 0.043 nM.
Regarding `COC(=O)N[C@H](C(=O)N1CCC[C@H]1c1ncc(-c2ccc3cc(-c4ccc(-c5cnc(-c6cccn6S(=O)(=O)c6ccccc6)[nH]5)cc4)ccc3c2)[nH]1)C(C)C`, the EC50 came out at 24.1 nM.
As for `COC(=O)N[C@H](C(=O)N1Cc2ccccc2C1c1ncc(-c2ccc(-c3ccc(-c4cnc([C@@H]5CCCN5C(=O)[C@@H](NC(=O)OC)C(C)C)[nH]4)cc3)cc2)[nH]1)C(C)C` (stereo partly shown), the EC50 was 0.0414 nM.
For `COC(=O)N[C@H](C(=O)N1CCC[C@H]1c1ncc(-c2ccc3cc(-c4ccc(-c5cnc([C@@H]6CCCN6C(=O)[C@H](NC(=O)OC)c6cccs6)[nH]5)cc4)ccc3c2)[nH]1)C(C)C`, the EC50 was found to be 0.0262 nM.
With `COC(=O)NC(C(=O)N1CCC[C@H]1c1ncc(-c2ccc3c(c2)COc2c-3ccc3cc(-c4cnc([C@@H]5CCCN5C(=O)C(NC(=O)OC)c5ccccc5)[nH]4)ccc23)[nH]1)c1ccccc1` (stereo partly shown), the concentration giving a half-maximal response (EC50) was determined as 0.0275 nM.
In the case of `COC(=O)N[C@H](C(=O)N1CCC[C@H]1c1ncc(-c2ccc3cc(-c4ccc(-c5cnc([C@@H]6CCCN6C(=O)[C@H](OC(=O)N(C)C)c6ccccc6)[nH]5)cc4)ccc3c2)[nH]1)C(C)C`, the EC50 is 0.0083 nM.
As to `COC(=O)N[C@H](C(=O)N1CCC[C@H]1c1ncc(-c2ccc3cc(-c4ccc(-c5cnc([C@@H]6CCCN6C(=O)[C@@H](OC(=O)N(C)C)c6ccccc6)[nH]5)cc4)ccc3c2)[nH]1)C(C)C`, the EC50 worked out at 0.0794 nM.
To `COC(=O)NC(C(=O)N1CCC[C@H]1c1ncc(-c2cc3sc(-c4ccc(-c5cnc([C@@H]6CCCN6C(=O)[C@H](NC(=O)OC)c6ccccc6)[nH]5)cc4)cc3s2)[nH]1)C(C)C` (stereo partly shown) belongs 0.0059 nM.
Regarding `COC(=O)N[C@H](C(=O)N1CCC[C@H]1c1ncc(-c2ccc3cc(-c4ccc(-c5cnc([C@@H]6CCCN6C(=O)[C@@H](NC(=O)OC)C(C)C)[nH]5)cc4)ccc3c2)[nH]1)c1ccccc1`, the EC50 turned out to be 0.0305 nM.
With `COC(=O)N[C@H](C(=O)N1CCC[C@H]1c1ncc(-c2ccc(-c3ccc4cc(-c5cnc([C@@H]6CCCN6C(=O)[C@H](NC(=O)OC)c6ccccc6)[nH]5)ccc4c3)cc2)[nH]1)C(C)C`, the EC50 worked out at 0.0083 nM.
`COC(=O)NC(C(=O)N1CCC[C@H]1c1ncc(-c2ccc(-c3ccc4cc(-c5cnc([C@@H]6CCCN6C(=O)[C@@H](NC(=O)OC)C(C)C)[nH]5)ccc4c3)cc2)[nH]1)c1ccccc1C` (stereo partly shown): the EC50 came out at 0.0117 nM.
`COC(=O)N[C@H](C(=O)N1CCC[C@H]1c1ncc(-c2ccc3cc(-c4ccc(-c5cnc([C@@H]6CCCN6C(=O)[C@H](NC(=O)OC)c6ccccc6OC)[nH]5)cc4)ccc3c2)[nH]1)C(C)C`: the EC50 was 0.0073 nM.
With `COC(=O)N[C@H](C(=O)N1CCC[C@H]1c1ncc(-c2ccc(-c3ccc4cc(-c5cnc([C@@H]6C[C@H](C#N)CN6C(=O)[C@H](NC(=O)OC)c6ccccc6)[nH]5)ccc4c3)cc2)[nH]1)C(C)C`, the concentration for a half-maximal effect (EC50) was 0.0097 nM.

The term EC50 denotes the concentration that produces a half-maximal response.
